For one experiment, the target named is T1, Cathepsin B (Homo sapiens, UniProt P07858).
T1 construct: The mixture for cathepsin B, containing 1 µg of cell lysate; endogenous in cells; host or cells: SH-SY5Y (control, APPwt- and APPmut-transfected)
Put plainly: Cathepsin B activity in cell lysates (Z‐Arg‐Arg‐AMC). Type of experiment: cell-based. The settings on record: APPmut cells, 6 h treatment. Here is the method: (§1) Cell viability was evaluated with the 3‐(4,5‐dimethylthiazol‐2‐yl)‐2,5‐diphenyltetrazolium bromide assay (MTT).^[ [25] ^] Upon 6 h and 24 h treatment with increasing concentrations (0‐10 µM) of C1, C2, and C3 dissolved in DMSO, cells were washed in PBS, pH 7.5, and then MTT (final concentration 0.5 mg mL^−1) was added to the culture medium without FBS and incubated for 2 h at 37 °C. The medium was then removed and replaced with 100 µL of DMSO. The optical density was measured at 550 nm in a microtiter plate reader. At least six cultures were utilized for each time point. Neuroblastoma cells, control and transfected cells, were then treated with C1, C2, and C3 for 6 and 24 h at the concentrations 0–1–5 µM. Compounds were dissolved in DMSO and then added to cell culture media. Control cells were included in each time point. After removing the medium and washing with cold phosphate buffered saline (PBS), cells were harvested in 4 mL of PBS and centrifuged at 1600 × g for 5 min. The pellet was resuspended in lysis buffer (20 mM Tris, pH 7.4, 250 mM sucrose, 1 mM EDTA, and 5 mM β‐mercaptoethanol) and passed through a 29‐gauge needle at least ten times. Lysates were centrifuged at 12 000×g for 15 min and the supernatants were stored at ‐80°C until use. Protein concentration was determined by the method of Bradford using bovine serum albumin (BSA) as standard.^[ [26] ^]
Cathepsin B proteolytic activity was measured using the fluorogenic peptide Z‐Arg‐Arg‐AMC at a final concentration of 50 µM, as previously described.^[ [24] ^] The mixture for cathepsin B, containing 1 µg of cell lysate, was pre‐incubated in 100 mM phosphate buffer pH 6.0, 1 mM EDTA, and 2 mM dithiothreitol for 5 min at 30°C. Upon the addition of the substrate, the mixture was incubated for 15 min at 30°C. The fluorescent signal released by the hydrolyzed 7‐amino‐4‐methyl‐coumarin (AMC, λexc = 365 nm, λem = 449 nm) was detected on a SpectraMax Gemini XPS microplate reader.

Experiment [1] has as its target T2, constitutive 20S proteasome (Bos taurus, UniProt Q2TBP0+Q32KL2+Q3MHN0).
T2 construct: isolated constitutive and immunoproteasomes purified from bovine brain and thymus, respectively; from tissue; host or cells: bovine brain
Briefly: In vitro activity assays on isolated constitutive 20S proteasome (fluorogenic peptides). Type of experiment: biochemical. Particulars: isolated 20S from bovine brain. How it is done:
(§2) PVLs effects on the 20S constitutive and immunoproteasome peptidase activities were measured through in vitro assays performed with fluorogenic peptides as substrates. Isolation and purification of the 20S proteasome from bovine brain and thymus were performed as previously reported.^[ [23] ^] The incubation mixture contained the compound at concentrations ranging from 0.0 to 10 µM, 1 µg of the isolated 20S proteasome, the appropriate substrate (5 µM final concentration), and 50 mm Tris/HCl (pH 8.0), up to a final volume of 100 µL. Purified proteasomes were always preincubated with each compound at 37°C for 30 min before the fluorogenic peptide substrates were added to the reaction mixture. Final incubation was performed at 37°C, and after 60 min the fluorescence of the hydrolyzed 7‐amino‐4‐methyl‐coumarin (AMC) and 4‐aminobenzoic acid (pAB) was detected (AMC, λexc = 365 nm, λem = 449 nm; pAB, λexc = 304 nm, λem = 664 nm) on a SpectraMax Gemini XPS microplate reader.
(§3) PVLs were first tested on isolated constitutive and immunoproteasomes purified from bovine brain and thymus, respectively. The constitutive 20S proteasome is a barrel‐shaped complex of four stacked rings, made of seven α subunits in the two outer rings and seven β subunits in the two inner rings, the latter bearing the catalytically active sites in the β1, β2, and β5 subunits. Treatment with inflammatory cytokines induces the transcription of three additional active subunits, known as β1i, β2i, and β5i, that replace constitutive homologues during proteasome assembly.^[ [28] ^] Proteasome proteolytic activities depend on the hydroxyl group of the N‐terminal threonine (Thr‐1) residue, responsible for cleaving peptides through a nucleophilic attack.^[ [29] ^]

A further experiment concerns Aβ(1‐42). Put plainly: Quantification of Aβ(1‐42) by ELISA in medium and cellular extracts. Format: cell-based, human. The settings on record: 24 h, 5 µM; for Aβ(1‐42) levels: APPwt cells. Here is the method: Levels of Aβ(1‐42) secreted into the medium and present in cellular extracts were determined after PVLs treatment using the Human Aβ42 solid‐phase sandwich ELISA Kit from Invitrogen, following the manufacturer's instructions. For Aβ quantification in cell medium, culture medium was collected after neuronal cells treatment, centrifuged at 300 × g for 10 min to remove non adherent cells and debris and then treated with protease inhibitors.

Experiment [2] has as its system ubiquitin‐protein conjugates and p27. Briefly: Western blot of proteasome substrates (ubiquitin‐protein conjugates, p27). Format: cell-based, human. Here is the method:
as §1
(§4) Proteins were resolved on SDS–PAGE and electroblotted onto PVDF membranes. Membranes with transferred proteins were incubated with the primary monoclonal antibody and successively with the specific peroxidase conjugated secondary antibody. Monoclonal antibodies against Ub and p27 were obtained from Santa Cruz Biotechnology, Inc. (Heidelberg, Germany). SQSTM1/p62 (sequestosome 1, herein p62) mouse monoclonal antibody was from Sigma‐Aldrich S.r.L. (Milano, Italy) and the anti‐LC3B antibody was purchased from Cell Signaling Technology, Inc. The immunoblot detection was performed with ECL Western blotting detection reagents using a ChemiDoc MP system. Each gel was loaded with molecular weight markers in the range of 12 to 225 kDa (GE Healthcare). Glyceraldehyde‐3‐phosphate dehydrogenase (GAPDH) was utilized as a control for equal protein loading: membranes were stripped and re‐probed with anti‐GAPDH monoclonal antibody (Santa Cruz Biotechnology, Heidelberg, Germany). Stripping buffer contained 200 mM glycine, 0.1% SDS, and 1% Tween 20. Immunoblot images were quantified using ImageJ 1.52p software (NIH, USA).

In another experiment the target is T3, 20S immunoproteasome (Bos taurus, UniProt Q3SZC2+Q3T0T1+Q3T112).
T3 construct: isolated constitutive and immunoproteasomes purified from bovine brain and thymus, respectively; from tissue; host or cells: bovine thymus
Briefly: In vitro activity assays on isolated immunoproteasome (fluorogenic peptides). Format: biochemical. The settings on record: isolated 20S from bovine thymus. Here is the method:
as §2, §3

The test system of another experiment is LC3II and p62. Put plainly: Western blot of autophagy markers (LC3II, p62). Format: cell-based, human. The settings on record: for levels of LC3II: 6 h. Here is the method:
as §1
as §4, with “Each gel was loaded with molecular weight markers in the range of 12 to 225 kDa (GE Healthcare). Glyceraldehyde‐3‐phosphate dehydrogenase (GAPDH) was utilized as a control for equal protein loading: membranes were stripped and re‐probed with anti‐GAPDH monoclonal antibody (Santa Cruz Biotechnology, Heidelberg, Germany). Stripping buffer contained 200 mM glycine, 0.1% SDS, and 1% Tween 20.” left out
(Immunoblotting shows a protein as a band on a membrane.)

The mark [3] stands for this setting: 30 min preincubation, 37°C, read-out: IC50 ChT‐L Constitutive proteasome.
The mark [4] stands for this setting: read-out: IC50 BrAAP Constitutive proteasome.
The mark [5] stands for this setting: read-out: IC50 PGPH Constitutive proteasome.
Where [6] appears, read: read-out: IC50 T‐L Constitutive proteasome.
Setting [7] is: 6 h exposure, control and transfected SH‐SY5Y cells.
Where [8] appears, read: 24 h treatment, mainly in APPmut cells exposed to C1.
The mark [9] stands for this setting: 30 min preincubation, 37°C, read-out: IC50 ChT‐L Immunoproteasome.
The mark [10] stands for this setting: read-out: IC50 BrAAP Immunoproteasome.
The mark [11] stands for this setting: read-out: IC50 PGPH Immunoproteasome.
Where [12] appears, read: read-out: IC50 T‐L Immunoproteasome.

Like-named read-outs stand apart in the source and are kept apart here.

Data on three molecules can be found in publication PMC9285603, “Flavan‐3‐ol Microbial Metabolites Modulate Proteolysis in Neuronal Cells Reducing Amyloid‐beta (1‐42) Levels” (Molecular Nutrition & Food Research, 2021).

The inhibition is the drop in the measured response relative to a control, in per cent. The low end stands for little suppression, the high end for strong suppression. In general, IC50 refers to the midpoint of a concentration-inhibition curve. `O=C1CCC(Cc2ccc(O)cc2)O1` (stereo not shown) [Compound C1, 5‐(4ʹ‐hydroxyphenyl)‐γ‐valerolactone] had an inhibition at 5 µM at Cathepsin B of 20%. Also, the IC50 in experiment [1] (setting [3]) stood at 120 ± 12.1 nM; in experiment [1] (setting [4]) it was 243 ± 20.1 nM; in experiment [1] (setting [5]) it was 62.8 ± 58.7 nM; in experiment [1] (setting [6]), 13 ± 2.1 nM; at 20S immunoproteasome (setting [9]), 126 ± 11.3 nM; at 20S immunoproteasome (setting [10]) it was 218 ± 19.6 nM. Further, the IC50 at 20S immunoproteasome (setting [11]) turned out to be 41.8 ± 3.8 nM; on 20S immunoproteasome (setting [12]), 227 ± 13.2 nM. Also, the “Aβ(1‐42) levels” value with Aβ(1‐42) is on record as “significantly reduced”. For the same molecule, the figures for the “levels of Ub‐conjugates and p27” value in experiment [2] (setting [7]) and in experiment [2] (setting [8]) were “no particular effect” and “evident increase”, respectively. Also, the “levels of LC3II” value in the experiment with LC3II and p62 (APPmut cells) is listed as “increased”.

For the molecule `O=C1CCC(Cc2ccc(O)c(O)c2)O1` (stereo not shown) [Compound C2, 5‐(3ʹ,4ʹ‐dihydroxyphenyl)‐γ‐valerolactone], the inhibition at 5 µM on Cathepsin B came to 20%. Besides, the IC50 was 16.2 ± 1.2 nM in experiment [1] (setting [3]); 256 ± 14.4 nM in experiment [1] (setting [4]); 85.8 ± 7.8 nM in experiment [1] (setting [5]); 87.4 ± 7.9 nM in experiment [1] (setting [6]); 238 ± 16.7 nM on 20S immunoproteasome (setting [9]); 61.3 ± 5.7 nM on 20S immunoproteasome (setting [10]). Also, the IC50 on 20S immunoproteasome (setting [11]) was determined as 114 ± 19.7 nM; on 20S immunoproteasome (setting [12]) it was 334 ± 28.9 nM. Moreover, in the experiment with Aβ(1‐42), the “Aβ(1‐42) levels” value was “did not induce any change”. Moreover, the “levels of Ub‐conjugates and p27” value in experiment [2] (setting [7]) is reported as “no particular effect”; in experiment [2] (setting [8]), “evident increase”. Besides, the “levels of LC3II” value with LC3II and p62 (APPwt cells) is reported as “increased”.

At Cathepsin B, `O=C1CCC(Cc2ccc(OS(=O)(=O)O)c(O)c2)O1` (stereo not shown) [Compound C3, 5‐(3ʹ‐hydroxyphenyl)‐γ‐valerolactone‐4ʹ‐sulfate] had an inhibition at 5 µM of 30%. The IC50 was 109 ± 11 nM in experiment [1] (setting [3]); 302 ± 27.8 nM in experiment [1] (setting [4]); 104 ± 11 nM in experiment [1] (setting [5]); 56.8 ± 2.3 nM in experiment [1] (setting [6]); 1450 ± 153 nM at 20S immunoproteasome (setting [9]); 88.4 ± 7 nM on 20S immunoproteasome (setting [10]). Moreover, the IC50 at 20S immunoproteasome (setting [11]) came to 72.7 ± 5.7 nM; on 20S immunoproteasome (setting [12]), 588 ± 47.6 nM. Besides, the “reduction of Aβ(1‐42) in cell extracts” value in the experiment on Aβ(1‐42) (APPmut cells) came to 35%. In addition, the “reduction of Aβ(1‐42) in cell medium” value in the experiment on Aβ(1‐42) (APPmut cells) was determined as 35%. Further, the “levels of Ub‐conjugates and p27” value in experiment [2] (setting [7]) is on record as “no particular effect”; in experiment [2] (setting [8]), “evident increase”. Besides, the p62 degradation result with LC3II and p62 (APPwt cells, long‐term (24 h) exposure) is on record as “favored p62 degradation”.
